According to PMC7997411, “Discovery and Optimization of Selective Inhibitors of Meprin α (Part II)” (Pharmaceuticals, 2021):
Several values for one entry are separate records, joined by “and”; a condition that tells them apart may be missing. Identical values can stand only once. Like-named read-outs stand apart in the source and are kept apart here.

What was measured:
MMP2 = target: T1, MMP2 (Homo sapiens, UniProt P08253); conditions: cited from earlier work
T1 construct: purchased R&D Systems 902-MP
T1 sequence (P08253 110-660): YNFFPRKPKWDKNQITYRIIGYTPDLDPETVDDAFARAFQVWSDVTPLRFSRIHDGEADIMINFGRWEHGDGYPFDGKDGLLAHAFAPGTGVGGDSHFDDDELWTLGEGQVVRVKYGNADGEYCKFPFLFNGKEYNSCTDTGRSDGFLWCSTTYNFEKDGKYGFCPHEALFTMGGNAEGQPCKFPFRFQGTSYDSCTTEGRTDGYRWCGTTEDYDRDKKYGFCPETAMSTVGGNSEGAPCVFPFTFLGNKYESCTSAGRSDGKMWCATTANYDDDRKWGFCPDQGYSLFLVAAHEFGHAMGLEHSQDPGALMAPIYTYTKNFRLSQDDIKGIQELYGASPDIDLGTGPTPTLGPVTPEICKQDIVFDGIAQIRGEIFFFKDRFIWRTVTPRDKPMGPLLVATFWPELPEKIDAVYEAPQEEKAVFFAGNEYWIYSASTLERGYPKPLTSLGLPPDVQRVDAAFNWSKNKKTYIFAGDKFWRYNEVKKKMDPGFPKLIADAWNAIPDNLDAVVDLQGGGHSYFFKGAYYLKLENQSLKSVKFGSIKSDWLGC

Meprin α [1] = conditions: cited from earlier work; for meprin α/β fold selectivity ratio: meprin α over meprin β ref 8
Meprin β = conditions: cited from earlier work
MMP9 = target: T2, MMP9 (Homo sapiens, UniProt P14780); conditions: cited from earlier work
T2 construct: purchased R&D Systems 911-MP

MMP13 = target: T3, MMP13 (Homo sapiens, UniProt P45452); conditions: cited from earlier work
T3 construct: purchased R&D Systems 511-MM

ADAM17 = target: T4, ADAM17 (Homo sapiens, UniProt P78536); conditions: cited from earlier work
T4 construct: purchased R&D Systems 930-ADB

ADAM10 = target: T5, ADAM10 (Homo sapiens, UniProt O14672); conditions: cited from earlier work
T5 construct: purchased R&D Systems 936-AD
T5 sequence (O14672 214-748): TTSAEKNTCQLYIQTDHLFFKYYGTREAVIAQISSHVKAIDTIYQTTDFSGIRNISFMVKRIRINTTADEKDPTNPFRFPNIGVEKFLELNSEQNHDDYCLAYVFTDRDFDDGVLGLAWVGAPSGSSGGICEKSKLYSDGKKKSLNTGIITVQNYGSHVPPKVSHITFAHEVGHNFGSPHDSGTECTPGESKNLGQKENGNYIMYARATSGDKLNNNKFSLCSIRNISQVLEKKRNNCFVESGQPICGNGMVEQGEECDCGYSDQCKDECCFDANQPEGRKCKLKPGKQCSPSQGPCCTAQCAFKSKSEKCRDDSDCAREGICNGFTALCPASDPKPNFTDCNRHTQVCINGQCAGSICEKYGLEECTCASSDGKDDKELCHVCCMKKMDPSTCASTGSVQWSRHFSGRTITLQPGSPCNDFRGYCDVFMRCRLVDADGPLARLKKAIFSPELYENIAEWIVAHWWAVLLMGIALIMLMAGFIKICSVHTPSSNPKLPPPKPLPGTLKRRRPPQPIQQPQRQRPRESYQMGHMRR

[2] = test system: MMP-2, MMP-3, MMP-8, MMP-9, MMP-10, MMP-14, ADAM10, and ADAM17; experiment: Selectivity panel of related metzincins; assay type: biochemical; conditions: meprin α vs MMP-2, MMP-3, MMP-8, MMP-9, MMP-10, MMP-14, ADAM10, ADAM17
Method: Both assays followed the same general protocol. 2.5 µL of 2× enzyme solution (20 nM) in assay buffer (10 mM HEPES, 0.001% Brij-35, pH 7.5) were added to solid bottom black 384 plates (Greiner, cat# 789075). Next, test compounds and pharmacological controls were added to corresponding wells using a 384-pin tool device (V&P Scientific, San Diego). After 30 min incubation at RT, the reactions were started by addition of 2.5 µL of 2× solutions of substrate (R&D Systems cat#: ES010, Mca-KPLGL-Dpa-AR-NH2, 20 µM). Reactions were incubated at RT for 2 h, after which the fluorescence was measured using a Perkin Elmer Viewlux multimode microplate imager (λexcitation = 324 nm, λemission = 393 nm). All compounds were tested in 10-point, 1:3 serial dilutions dose-response format starting with highest concentration of 100 µM. IC50 values were determined using non-linear regression analysis using the GraphPad Prism 8.0 suite of programs.
All assays followed the same general protocol. […] Reactions were incubated at RT for 1 h, after which the fluorescence was measured using the Synergy H4 multimode microplate reader (Biotek Instruments) (λexcitation = 324 nm, λemission = 390 nm). […] IC50 values were determined using non-linear regression analysis using the GraphPad Prism 8.0 suite of programs.

meprin α [3] = target: T6, meprin α (Homo sapiens, UniProt Q16819); experiment: Meprin α assay in a 384-well plate (fluorogenic substrate Mca-YVADAPK-K(Dnp)); assay type: biochemical
T6 construct: Strep-tag; made in house; host or cells: BTI-TN-5B1-4 insect cells (baculovirus, amplified in Sf9)
T6 sequence (Q16819 66-746): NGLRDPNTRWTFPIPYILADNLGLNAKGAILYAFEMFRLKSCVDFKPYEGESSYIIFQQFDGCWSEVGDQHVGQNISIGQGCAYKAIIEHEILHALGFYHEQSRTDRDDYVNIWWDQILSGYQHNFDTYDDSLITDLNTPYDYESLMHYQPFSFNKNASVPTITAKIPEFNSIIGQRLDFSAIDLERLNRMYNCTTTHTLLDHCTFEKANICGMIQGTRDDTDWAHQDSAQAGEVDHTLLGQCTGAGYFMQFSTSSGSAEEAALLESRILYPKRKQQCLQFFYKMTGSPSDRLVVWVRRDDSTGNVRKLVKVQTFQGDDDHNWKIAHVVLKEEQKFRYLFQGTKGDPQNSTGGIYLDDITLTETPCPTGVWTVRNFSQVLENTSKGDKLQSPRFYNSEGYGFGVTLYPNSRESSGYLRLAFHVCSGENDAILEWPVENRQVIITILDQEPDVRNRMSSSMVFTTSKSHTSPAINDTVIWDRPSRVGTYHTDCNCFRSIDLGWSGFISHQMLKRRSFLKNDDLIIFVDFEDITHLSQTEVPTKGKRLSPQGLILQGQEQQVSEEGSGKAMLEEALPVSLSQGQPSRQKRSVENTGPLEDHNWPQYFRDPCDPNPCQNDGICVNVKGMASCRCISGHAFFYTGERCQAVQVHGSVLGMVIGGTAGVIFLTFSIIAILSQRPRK
Method: (§1) Recombinant human meprin α and meprin β were expressed using the Bac-to-Bac expression system (Gibco Life Technologies, Paisley, UK) as described before. Media and supplements were obtained from Gibco Life Technologies. Recombinant Baculoviruses were amplified in adherently growing Spodoptera frugiperda (Sf)9 insect cells at 27 °C in Grace’s insect medium supplemented with 10% fetal bovine serum, 50 units/mL penicillin, and 50 μg/mL streptomycin. Protein expression was performed in 500 mL suspension cultures of BTI-TN-5B1-4 insect cells growing in Express Five SFM supplemented with 4 mM glutamine, 50 units/mL penicillin, and 50 μg/mL streptomycin in Fernbach-flasks using a Multitron orbital shaker (INFORS AG, Bottmingen, Switzerland). Cells were infected at a density of 2 × 10^6 cells/mL with an amplified viral stock at a MOI of ~10. […] Meprins were activated by trypsin, which was removed afterwards by affinity chromatography using a column containing immobilized chicken ovomucoid, a trypsin inhibitor.
(§2) Both assays followed the same general protocol. […] After 30 min incubation at RT, the reactions were started by addition of 5 µL of 2× solutions of substrates (20 µM, meprin α Mca-YVADAPK-K(Dnp), and for meprin β Mca-EDEDED-K(Dnp)).

human meprin β = target: T7, human meprin β (Homo sapiens, UniProt Q16820); experiment: Meprin β assay in a 384-well plate (fluorogenic substrate Mca-EDEDED-K(Dnp)); assay type: biochemical; conditions: triplicate, ± SD
T7 construct: His-tag; made in house; host or cells: BTI-TN-5B1-4 insect cells (baculovirus, amplified in Sf9)
T7 sequence (Q16820 62-701): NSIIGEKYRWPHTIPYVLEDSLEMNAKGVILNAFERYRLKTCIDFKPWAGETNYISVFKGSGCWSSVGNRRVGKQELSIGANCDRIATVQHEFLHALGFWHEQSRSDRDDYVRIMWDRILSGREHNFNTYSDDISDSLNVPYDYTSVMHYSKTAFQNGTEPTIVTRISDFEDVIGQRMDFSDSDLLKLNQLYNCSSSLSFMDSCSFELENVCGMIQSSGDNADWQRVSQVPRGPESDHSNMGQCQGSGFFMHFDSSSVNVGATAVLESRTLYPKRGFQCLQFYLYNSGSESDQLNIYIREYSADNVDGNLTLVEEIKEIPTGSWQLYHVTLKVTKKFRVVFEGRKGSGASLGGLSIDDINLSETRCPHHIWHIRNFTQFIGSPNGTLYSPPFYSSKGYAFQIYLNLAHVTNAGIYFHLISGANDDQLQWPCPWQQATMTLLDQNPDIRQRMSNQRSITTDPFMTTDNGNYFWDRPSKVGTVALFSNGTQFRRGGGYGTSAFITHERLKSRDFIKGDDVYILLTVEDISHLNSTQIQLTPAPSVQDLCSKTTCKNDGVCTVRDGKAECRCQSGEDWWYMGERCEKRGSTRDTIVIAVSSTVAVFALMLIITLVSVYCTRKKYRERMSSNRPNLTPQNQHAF
Method: as §1, §2

[4] = single value given, at 10 μM ref 11

T2 sequence (P14780 94-707): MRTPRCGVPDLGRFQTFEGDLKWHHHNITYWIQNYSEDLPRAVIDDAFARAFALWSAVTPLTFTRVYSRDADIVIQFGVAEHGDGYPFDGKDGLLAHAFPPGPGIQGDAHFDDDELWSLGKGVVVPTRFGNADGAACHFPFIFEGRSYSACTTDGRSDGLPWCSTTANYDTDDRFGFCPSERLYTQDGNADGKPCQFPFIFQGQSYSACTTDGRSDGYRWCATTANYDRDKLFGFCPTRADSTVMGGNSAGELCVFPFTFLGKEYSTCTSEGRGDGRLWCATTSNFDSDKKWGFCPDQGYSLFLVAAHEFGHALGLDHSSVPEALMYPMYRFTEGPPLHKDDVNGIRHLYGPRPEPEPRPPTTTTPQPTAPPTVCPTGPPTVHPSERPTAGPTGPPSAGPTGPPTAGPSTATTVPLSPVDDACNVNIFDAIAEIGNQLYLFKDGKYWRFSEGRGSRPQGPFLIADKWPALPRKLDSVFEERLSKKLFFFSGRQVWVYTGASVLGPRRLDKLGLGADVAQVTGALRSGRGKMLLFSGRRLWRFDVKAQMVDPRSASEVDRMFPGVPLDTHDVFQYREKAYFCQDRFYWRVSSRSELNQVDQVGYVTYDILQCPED
T4 sequence (P78536 215-824): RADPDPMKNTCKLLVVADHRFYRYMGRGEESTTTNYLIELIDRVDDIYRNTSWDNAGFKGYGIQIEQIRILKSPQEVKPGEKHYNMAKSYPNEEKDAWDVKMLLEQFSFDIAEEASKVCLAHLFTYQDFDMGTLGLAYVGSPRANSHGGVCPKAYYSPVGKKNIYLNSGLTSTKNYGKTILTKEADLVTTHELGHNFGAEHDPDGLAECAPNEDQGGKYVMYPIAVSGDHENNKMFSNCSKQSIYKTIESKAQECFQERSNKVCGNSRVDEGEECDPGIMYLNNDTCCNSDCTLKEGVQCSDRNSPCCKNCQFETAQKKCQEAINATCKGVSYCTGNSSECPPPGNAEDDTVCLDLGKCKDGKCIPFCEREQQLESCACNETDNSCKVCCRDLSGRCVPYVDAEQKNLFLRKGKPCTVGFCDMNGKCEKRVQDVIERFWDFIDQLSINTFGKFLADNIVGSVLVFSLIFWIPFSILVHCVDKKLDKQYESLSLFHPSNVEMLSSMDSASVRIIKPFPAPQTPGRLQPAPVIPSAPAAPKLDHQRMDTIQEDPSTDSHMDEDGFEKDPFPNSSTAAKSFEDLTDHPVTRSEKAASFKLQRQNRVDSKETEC

## O=C(Cc1c(-c2ccccc2)n[nH]c1-c1ccccc1)NO [2e]
MMP2; [4]
  MMP2 % activity remaining: 104%
Meprin α [1]
  IC50: 3 ± 1 nM
Meprin β
  IC50: 199 ± 1 nM
MMP9; [4]
  MMP9 % activity remaining: 81%
MMP13; [4]
  MMP13 % activity remaining: 75%
ADAM17; [4]
  ADAM17 % activity remaining: 61%
ADAM10; [4]
  ADAM10 % activity remaining: 73%

## O=C(CN(Cc1ccc2c(c1)OCO2)Cc1ccc2c(c1)OCO2)NO [10d]
MMP2; at 10 μM (top) ref 8
  MMP2 % activity remaining: 95%
MMP2; at 200 μM (bottom) ref 8
  MMP2 % activity remaining: 26%
Meprin α [1]
  IC50: 160 ± 1 nM
  meprin α/β fold selectivity ratio: 18 fold
Meprin β
  IC50: 2950 ± 350 nM
MMP9; at 10 μM (top) ref 8
  MMP9 % activity remaining: 91%
MMP9; at 200 μM (bottom) ref 8
  MMP9 % activity remaining: 61%
MMP13; at 10 μM (top) ref 8
  MMP13 % activity remaining: 86%
MMP13; at 200 μM (bottom) ref 8
  MMP13 % activity remaining: 55%
ADAM17; at 10 μM (top) ref 8
  ADAM17 % activity remaining: 86%
ADAM17; at 200 μM (bottom) ref 8
  ADAM17 % activity remaining: 57%
ADAM10; at 10 μM (top) ref 8
  ADAM10 % activity remaining: 86%
ADAM10; at 200 μM (bottom) ref 8
  ADAM10 % activity remaining: 61%

## O=C(CN(Cc1ccc2c(c1)OCCO2)Cc1ccc2c(c1)OCCO2)NO [10e]
MMP2; at 10 μM (top) ref 8
  MMP2 % activity remaining: 94%
MMP2; at 200 μM (bottom) ref 8
  MMP2 % activity remaining: 65%
Meprin α [1]
  IC50: 400 ± 30 nM
  meprin α/β fold selectivity ratio: 19 fold
Meprin β
  IC50: 7590 ± 10 nM
MMP9; at 10 μM (top) ref 8
  MMP9 % activity remaining: 91%
MMP9; at 200 μM (bottom) ref 8
  MMP9 % activity remaining: 21%
MMP13; at 10 μM (top) ref 8
  MMP13 % activity remaining: 98%
MMP13; at 200 μM (bottom) ref 8
  MMP13 % activity remaining: 47%
ADAM17; at 10 μM (top) ref 8
  ADAM17 % activity remaining: 80%
ADAM17; at 200 μM (bottom) ref 8
  ADAM17 % activity remaining: 41%
ADAM10; at 10 μM (top) ref 8
  ADAM10 % activity remaining: 80%
ADAM10; at 200 μM (bottom) ref 8
  ADAM10 % activity remaining: 56%

## COc1ccc(-n2c(CSc3ncccn3)nnc2SCC(=O)NO)cc1 [SR19855, N-hydroxy-2-((4-(4-methoxyphenyl)-5-((pyrimidin-2-ylthio)methyl)-4H-1,2,4-triazol-3-yl)thio)acetamide]
[2]
  selectivity over a larger panel of metzincins: at least 10 fold
Meprin α [3]; Figure 1
  meprin α/β selectivity (in words): moderate meprin α/β selectivity
Meprin α [3]; meprin α over meprin β
  meprin α/β fold selectivity (ratio of IC50 values): ~ 13 fold and 13 fold
Meprin α [3]; triplicate, ± SD
  IC50: 1300 ± 100 nM
  Meprin α IC50: low-micromolar
Human meprin β
  IC50: 17000 ± 3000 nM
